Measurements as given in patent US10905897B2, “Synergistic treatment methodologies using light therapy” (Neuro-Laser Foundation, Inc., priority 2016, dated 2021).

How the values were obtained:
[1] = system: traumatic brain injury; conditions: two large U.S. studies; cited from earlier work
[2] = system: postconcussive symptoms; conditions: patients with TBI; cited from earlier work
[3] = system: nerves involved in polyneuropathy; experiment: Polyneuropathy treatment: ketamine administration followed by infrared light, nerve conduction; format: in vivo, human; conditions: then 810 nm and 980 nm light, 10.5 watts, continuous wave, 10 minutes, about 9-10 treatments
Source text: In one embodiment, the inventive method can be employed to treat an exemplary case of polyneuropathy. In this example, a neurologist or other medical professional can conduct an EMG study (or other diagnostic procedure) to determine which nerve is involved, locate the distal portion of the nerve and the path through the body. Then, after the appropriate ketamine administration, as part of 910, the operator configures the system. For example, this can be accomplished by setting the wattage to 10.5 watts, setting the wavelengths to 810 nm and 980 nm, specifying continuous wave, setting duration at 10 minutes, and determining total joules to be about 6000. The operator would then activate the applicator over the nerve to be treated. Maintaining proximity and applying active circular techniques, the operator would move the applicator over the area of involvement, tracing the actual nerve or nerves involved. This might entail, for instance, moving from the hip down the leg to the foot, or from the hand up the arm to the shoulder. The active sweeping pattern is maintained throughout, while monitoring the temperature, light, duration and patient as well. The treatment is then reviewed with the patient and follow-up treatments are scheduled (usually approximately 9-10 treatments for this condition). […]

[4] = system: depressive symptoms and suicidal ideation; conditions: single infusion; cited from earlier work
[5] = system: depression; experiment: Clinical experience with ketamine treatment for depression; conditions: extensive clinical experience
[6] = system: tau protein; conditions: transgenic mice overexpressing tau, cited from earlier work
[7] = system: post-concussive syndrome; conditions: double-blind, placebo-controlled; cited from earlier work

C[N+](C)(C)CCOP(=O)(O)OP(=O)([O-])OC[C@H]1O[C@@H](n2ccc(N)nc2=O)[C@H](O)[C@@H]1O [Citicholine]
benefit in TBI [1]: failed to demonstrate significant benefit

C[S+](CC[C@H](N)C(=O)O)C[C@H]1O[C@@H](n2cnc3c(N)ncnc32)[C@H](O)[C@@H]1O (some centres unmarked) [SAMe, S-adenosylmethionine]
improvement in clinical scores of postconcussive symptoms [2]: 77%

CNC1(c2ccccc2Cl)CCCCC1=O (centres unmarked) [ketamine]
increase in the conduction velocity of the nerves involved [3]: 20-30% | duration of symptom relief with single infusions [4]: 4 to 10 days | patients treated for depression who see a favorable clinical response [5]: approximately 80%

[Cl-].[Li+] [lithium chloride]
resulting blood levels ([6]; dietary lithium chloride): ≤ 0.2 milli-Equivalents per liter | levels of tau protein accumulation upon pathological examination [6]: significantly decreased

NC(=O)CN1CCCC1=O [piracetam, Piracetam]
symptoms of post-concussive syndrome, including headache and vertigo [7]: improved several symptoms
